Source: ChEMBL document CHEMBL1909046, “DrugMatrix in vitro pharmacology data”

How the values were obtained:
[1] = DRUGMATRIX: Sigma2 radioligand binding (ligand: [3H] Ifenprodil); format: cell membranes, Rattus norvegicus, Wistar, Brain, Membrane; conditions: Not Active = under 50% inhibition at 10 µM
D(4) dopamine receptor = molecular target: T1, D(4) dopamine receptor (Homo sapiens, UniProt P21917); experiment: DRUGMATRIX: Dopamine D4.2 radioligand binding (ligand: [3H] Spiperone); format: cell membranes, CHO-K1, Membrane; conditions: cho-k1; Not Active = under 50% inhibition at 10 µM
T1 sequence (P21917 whole entry): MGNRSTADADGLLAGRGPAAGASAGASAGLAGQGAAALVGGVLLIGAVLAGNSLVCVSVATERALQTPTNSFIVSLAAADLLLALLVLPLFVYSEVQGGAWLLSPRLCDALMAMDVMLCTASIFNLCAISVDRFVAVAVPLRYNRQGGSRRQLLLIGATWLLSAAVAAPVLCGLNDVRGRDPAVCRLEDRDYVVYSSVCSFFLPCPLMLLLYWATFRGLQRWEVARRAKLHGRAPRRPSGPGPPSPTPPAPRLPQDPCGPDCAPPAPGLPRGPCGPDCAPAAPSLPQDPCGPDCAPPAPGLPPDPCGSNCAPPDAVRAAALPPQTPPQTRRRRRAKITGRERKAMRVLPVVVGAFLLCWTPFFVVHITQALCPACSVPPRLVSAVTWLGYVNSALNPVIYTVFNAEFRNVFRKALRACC

[2] = molecular target: T2, Muscarinic acetylcholine receptor M2 (Homo sapiens, UniProt P08172); format: cell membranes, CHO-K1, Membrane; also: in other assays of this panel Not Active means under 50% inhibition at 10 µM
T2 sequence (P08172 whole entry): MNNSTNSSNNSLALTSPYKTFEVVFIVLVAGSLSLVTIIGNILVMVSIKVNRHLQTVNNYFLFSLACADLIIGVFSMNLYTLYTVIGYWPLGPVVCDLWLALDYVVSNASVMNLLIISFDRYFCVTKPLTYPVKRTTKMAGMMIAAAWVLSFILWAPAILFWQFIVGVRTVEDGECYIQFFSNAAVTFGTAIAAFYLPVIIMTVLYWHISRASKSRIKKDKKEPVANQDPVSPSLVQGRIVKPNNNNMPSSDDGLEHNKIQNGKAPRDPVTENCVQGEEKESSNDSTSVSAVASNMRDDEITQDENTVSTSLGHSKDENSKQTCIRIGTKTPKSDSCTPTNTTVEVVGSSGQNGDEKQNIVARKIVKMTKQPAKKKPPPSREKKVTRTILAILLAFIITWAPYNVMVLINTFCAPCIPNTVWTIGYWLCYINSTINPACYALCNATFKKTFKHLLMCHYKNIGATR

D(1A) dopamine receptor = D(1A) dopamine receptor (Homo sapiens, UniProt P21728); experiment: DRUGMATRIX: Dopamine D1 radioligand binding (ligand: [3H] SCH-23390); format: cell membranes, CHO, Membrane; conditions: Not Active = under 50% inhibition at 10 µM
[3] = molecular target: T3, Receptor-type tyrosine-protein phosphatase C (Homo sapiens, UniProt P08575); design: species or system Escherichia coli;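 also: inhibition of CD45 enzyme activity measured using DiFMUP as substrate; in other assays of this panel Not Active means under 50% inhibition at 10 µM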
T3 sequence (P08575 whole entry): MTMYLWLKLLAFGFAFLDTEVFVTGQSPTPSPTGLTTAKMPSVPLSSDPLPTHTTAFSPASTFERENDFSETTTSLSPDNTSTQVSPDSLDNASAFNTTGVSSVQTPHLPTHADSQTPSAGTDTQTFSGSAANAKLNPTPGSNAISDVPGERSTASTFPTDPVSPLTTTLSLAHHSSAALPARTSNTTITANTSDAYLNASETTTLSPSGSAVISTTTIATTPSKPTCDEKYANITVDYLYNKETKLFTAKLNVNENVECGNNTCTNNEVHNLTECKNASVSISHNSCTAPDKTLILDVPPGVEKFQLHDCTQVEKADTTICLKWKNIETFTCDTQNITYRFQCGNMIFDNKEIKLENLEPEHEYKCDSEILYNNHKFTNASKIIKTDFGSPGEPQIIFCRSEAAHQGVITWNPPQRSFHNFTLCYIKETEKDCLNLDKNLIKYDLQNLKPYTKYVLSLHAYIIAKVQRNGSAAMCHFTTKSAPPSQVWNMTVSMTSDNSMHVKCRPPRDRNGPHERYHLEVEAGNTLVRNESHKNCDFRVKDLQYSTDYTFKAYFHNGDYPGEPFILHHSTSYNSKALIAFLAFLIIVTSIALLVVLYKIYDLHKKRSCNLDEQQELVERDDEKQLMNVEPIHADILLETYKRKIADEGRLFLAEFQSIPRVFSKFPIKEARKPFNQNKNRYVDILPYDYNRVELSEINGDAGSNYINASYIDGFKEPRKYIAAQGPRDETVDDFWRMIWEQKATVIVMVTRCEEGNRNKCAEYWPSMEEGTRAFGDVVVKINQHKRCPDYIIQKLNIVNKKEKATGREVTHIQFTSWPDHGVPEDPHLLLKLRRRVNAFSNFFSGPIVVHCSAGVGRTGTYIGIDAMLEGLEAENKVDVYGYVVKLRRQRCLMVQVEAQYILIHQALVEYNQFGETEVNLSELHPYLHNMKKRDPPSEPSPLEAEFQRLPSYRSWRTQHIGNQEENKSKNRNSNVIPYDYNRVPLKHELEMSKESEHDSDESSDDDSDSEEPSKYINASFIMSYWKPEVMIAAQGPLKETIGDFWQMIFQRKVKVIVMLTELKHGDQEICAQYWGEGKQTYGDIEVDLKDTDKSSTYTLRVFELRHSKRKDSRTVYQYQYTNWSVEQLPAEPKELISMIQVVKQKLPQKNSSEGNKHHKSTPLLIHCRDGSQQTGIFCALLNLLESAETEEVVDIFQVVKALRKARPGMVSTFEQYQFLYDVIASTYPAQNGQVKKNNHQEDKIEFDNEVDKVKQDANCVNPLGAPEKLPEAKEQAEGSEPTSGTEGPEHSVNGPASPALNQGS

[4] = molecular target: Receptor tyrosine-protein kinase erbB-2 (Homo sapiens, UniProt P04626); format: cell-based; conditions: insect cells;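 also: inhibition of HER2 kinase enzyme activity, measured with Poly(Glu:Tyr) as the phosphorylation substrate; in other assays of this panel Not Active means under 50% inhibition at 10 µM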
B2 bradykinin receptor = molecular target: T4, B2 bradykinin receptor (Homo sapiens, UniProt P30411); format: cell membranes, Membrane; conditions: chem-1; also: in other assays of this panel Not Active means under 50% inhibition at 10 µM
T4 sequence (P30411 whole entry): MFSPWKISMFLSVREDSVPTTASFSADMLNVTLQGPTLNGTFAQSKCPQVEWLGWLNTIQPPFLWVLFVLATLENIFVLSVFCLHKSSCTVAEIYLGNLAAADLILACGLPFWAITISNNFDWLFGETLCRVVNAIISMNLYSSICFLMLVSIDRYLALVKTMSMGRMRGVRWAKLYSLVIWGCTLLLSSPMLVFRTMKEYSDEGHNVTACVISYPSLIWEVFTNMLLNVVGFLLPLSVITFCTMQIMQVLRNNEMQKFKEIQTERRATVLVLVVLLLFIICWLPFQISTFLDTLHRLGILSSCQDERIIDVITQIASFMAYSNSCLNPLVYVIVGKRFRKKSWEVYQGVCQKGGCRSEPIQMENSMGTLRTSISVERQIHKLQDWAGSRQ

D(1A) dopamine receptor, sequence (P21728 whole entry): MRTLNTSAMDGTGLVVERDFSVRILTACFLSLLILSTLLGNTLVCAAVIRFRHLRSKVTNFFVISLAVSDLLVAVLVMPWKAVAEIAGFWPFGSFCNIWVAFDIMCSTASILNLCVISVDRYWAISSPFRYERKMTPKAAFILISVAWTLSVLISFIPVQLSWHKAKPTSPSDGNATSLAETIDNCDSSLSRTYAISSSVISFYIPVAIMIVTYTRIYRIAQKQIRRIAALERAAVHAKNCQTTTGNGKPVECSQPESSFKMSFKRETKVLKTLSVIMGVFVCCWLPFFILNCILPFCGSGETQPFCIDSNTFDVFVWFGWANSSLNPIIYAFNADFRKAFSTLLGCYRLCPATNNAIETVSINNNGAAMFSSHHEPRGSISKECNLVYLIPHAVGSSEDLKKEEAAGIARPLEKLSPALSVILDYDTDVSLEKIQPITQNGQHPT
Receptor tyrosine-protein kinase erbB-2, sequence (P04626 whole entry): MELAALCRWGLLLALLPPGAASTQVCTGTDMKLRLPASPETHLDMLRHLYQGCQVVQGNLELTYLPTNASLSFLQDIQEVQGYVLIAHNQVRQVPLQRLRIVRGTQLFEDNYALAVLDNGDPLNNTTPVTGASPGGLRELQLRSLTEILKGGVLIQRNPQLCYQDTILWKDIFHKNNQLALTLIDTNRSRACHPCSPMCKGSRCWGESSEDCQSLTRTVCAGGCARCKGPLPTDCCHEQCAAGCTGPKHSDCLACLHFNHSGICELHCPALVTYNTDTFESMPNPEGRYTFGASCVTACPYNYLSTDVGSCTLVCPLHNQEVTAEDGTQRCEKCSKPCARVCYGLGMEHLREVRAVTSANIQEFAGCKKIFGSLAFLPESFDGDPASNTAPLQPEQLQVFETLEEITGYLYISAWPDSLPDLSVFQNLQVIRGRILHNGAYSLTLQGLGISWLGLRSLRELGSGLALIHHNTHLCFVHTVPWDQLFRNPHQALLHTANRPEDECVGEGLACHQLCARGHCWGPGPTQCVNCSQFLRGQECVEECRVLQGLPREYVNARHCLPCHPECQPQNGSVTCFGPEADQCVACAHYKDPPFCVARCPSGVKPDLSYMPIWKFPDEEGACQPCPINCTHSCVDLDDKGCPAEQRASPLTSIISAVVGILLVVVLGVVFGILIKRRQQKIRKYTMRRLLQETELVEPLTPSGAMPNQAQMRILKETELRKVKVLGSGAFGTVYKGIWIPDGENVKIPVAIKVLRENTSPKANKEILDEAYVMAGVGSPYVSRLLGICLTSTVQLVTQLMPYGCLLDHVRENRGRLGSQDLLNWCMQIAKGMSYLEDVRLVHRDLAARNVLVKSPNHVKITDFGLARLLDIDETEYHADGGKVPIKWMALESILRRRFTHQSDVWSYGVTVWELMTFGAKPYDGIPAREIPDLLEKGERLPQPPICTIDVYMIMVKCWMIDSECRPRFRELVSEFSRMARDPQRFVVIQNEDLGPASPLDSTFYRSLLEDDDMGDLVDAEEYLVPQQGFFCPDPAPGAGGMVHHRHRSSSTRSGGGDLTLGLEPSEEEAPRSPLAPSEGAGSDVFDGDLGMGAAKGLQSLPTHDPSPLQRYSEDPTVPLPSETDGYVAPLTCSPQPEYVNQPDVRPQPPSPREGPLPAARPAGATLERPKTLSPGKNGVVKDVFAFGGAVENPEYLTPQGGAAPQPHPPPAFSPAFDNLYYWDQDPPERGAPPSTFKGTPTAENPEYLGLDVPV

| Compound | IC50 [1] | Ki [1] | IC50 (D(4) dopamine receptor) | IC50 ([2]; cho-k1) | IC50 (D(1A) dopamine receptor; cho) | IC50 [3] | IC50 [4] | IC50 (B2 bradykinin receptor) | IC50 ([2]; read-out: IC50) [nM] | Ki ([2]; read-out: Ki) [nM] | IC50 (D(1A) dopamine receptor; read-out: IC50) [nM] | Ki (D(1A) dopamine receptor; read-out: Ki) [nM] | Ki (D(4) dopamine receptor) |
| --- | --- | --- | --- | --- | --- | --- | --- | --- | --- | --- | --- | --- | --- |
| Cc1c(N)nc([C@H](CC(N)=O)NC[C@H](N)C(N)=O)nc1C(=O)N[C@H](C(=O)N[C@H](C)[C@@H](O)[C@H](C)C(=O)N[C@H](C(=O)NCCc1nc(-c2nc(C(=O)NCCC[S+](C)C)cs2)cs1)[C@@H](C)O)[C@@H](O[C@@H]1O[C@@H](CO)[C@@H](O)[C@H](O)[C@@H]1O[C@H]1O[C@H](CO)[C@@H](O)[C@H](OC(N)=O)[C@@H]1O)c1c[nH]cn1.[Br-] [BLEOMYCIN A2] | Not Active | Not Active | Not Active | Not Active | Not Active | Not Active | Not Active | Not Active |  |  |  |  |  |
| C#C[C@]1(O)CC[C@H]2[C@@H]3CCC4=CC(=O)CC[C@@H]4[C@H]3CC[C@@]21C [NORETHINDRONE] | Not Active | Not Active | Not Active | Not Active | Not Active | Not Active | Not Active | Not Active |  |  |  |  |  |
| CC(CN1c2ccccc2Sc2ccccc21)N(C)C (centres undefined) [PROMETHAZINE] | Not Active | Not Active | Not Active |  |  | Not Active | Not Active | Not Active | 35 | 12 | 2740 | 1370 |  |
| COc1cc(NC(C)CCCN)c2ncccc2c1 (centres undefined) [PRIMAQUINE] | Not Active | Not Active | Not Active | Not Active | Not Active | Not Active | Not Active | Not Active |  |  |  |  |  |
| CCCCCCNC(=O)n1cc(F)c(=O)[nH]c1=O [CARMOFUR] | Not Active | Not Active | Not Active | Not Active | Not Active | Not Active | Not Active | Not Active |  |  |  |  |  |
| Cc1cc(C(C)(C)C)c(O)c(C)c1CC1=NCCN1 [OXYMETAZOLINE] | Not Active | Not Active | Not Active | Not Active | Not Active | Not Active | Not Active | Not Active |  |  |  |  |  |
| O=c1[nH]c2ccccc2c2ccccc12 | Not Active | Not Active | Not Active | Not Active | Not Active | Not Active | Not Active | Not Active |  |  |  |  |  |
| C=C(Cl)Cl [1,1-DICHLOROETHENE] | Not Active | Not Active | Not Active | Not Active | Not Active | Not Active | Not Active | Not Active |  |  |  |  |  |
| CC(=O)[C@]1(O)Cc2c(O)c3c(c(O)c2[C@@H](O[C@H]2C[C@H](N)[C@H](O)[C@H](C)O2)C1)C(=O)c1ccccc1C3=O [IDARUBICIN] | Not Active | Not Active | Not Active | Not Active | Not Active | Not Active | Not Active | Not Active |  |  |  |  |  |
| Oc1ccccc1 [PHENOL] | Not Active | Not Active | Not Active | Not Active | Not Active | Not Active | Not Active | Not Active |  |  |  |  |  |
| O=C(Nc1ccc(Cl)c(Cl)c1)c1cc(Cl)cc(Cl)c1O [3,3',4',5-TETRACHLOROSALICYLANILIDE] | Not Active | Not Active | Not Active | Not Active | Not Active | Not Active | Not Active | Not Active |  |  |  |  |  |
| CC(=O)Nc1ccc2c(c1)Cc1ccccc1-2 [2-ACETYLAMINOFLUORENE] | Not Active | Not Active | Not Active | Not Active | Not Active | Not Active | Not Active | Not Active |  |  |  |  |  |
| C[N+](C)(C)CCOC(N)=O.[Cl-] [CARBACHOL] | Not Active | Not Active |  | Not Active | Not Active | Not Active | Not Active | Not Active |  |  |  |  | Not Active |
| Oc1ncnc2[nH]ncc12 [ALLOPURINOL] | Not Active | Not Active | Not Active | Not Active | Not Active | Not Active | Not Active | Not Active |  |  |  |  |  |
